IC50 data for one substance are collected here from PMC8999125, “In Vitro and In Vivo Effects of the Urokinase Plasminogen Activator Inhibitor WX-340 on Anaplastic Thyroid Cancer Cell Lines” (International Journal of Molecular Sciences, 2022).

The assay concerns the target T1, urokinase-type plasminogen activator (uPA) (Homo sapiens, UniProt P00749).
T1 construct: gene PLAU; uPA purified from human urine
Nature of the assay: colorimetric uPA activity assay (CHEMICON kit), dose-response […] to […]. The class given is biochemical.

The term IC50 denotes the concentration needed to halve the response being measured. A lower IC50 goes with higher potency.

In the case of WX-340, half-maximal inhibition (IC50) was put at 90 nM.
